Source: ChEMBL document CHEMBL3351614, “Discovery of 1a,2,5,5a-tetrahydro-1H-2,3-diaza-cyclopropa[a]pentalen-4-carboxamides as potent and selective CB2 receptor agonists” (Bioorg Med Chem Lett, 2015)

Columns and labels:
[1] = Cmax in Sprague-Dawley rat at 3 mg/kg, po after 0.4 hrs; assay type: ADME, organism-based; set-up: dose 3 mg/kg, route oral; settings: in vivo
[2] = Cmax in Sprague-Dawley rat at 2 mg/kg, iv and 3 mg/kg, po; assay type: ADME, organism-based; settings: in vivo
[3] = Ratio of drug level in brain to plasma in Sprague-Dawley rat at 3 mg/kg, po after 2 hrs; assay type: ADME, organism-based; set-up: dose 3 mg/kg, route oral; settings: read-out: BPR
[4] = Volume of distribution at steady state in Sprague-Dawley rat at 2 mg/kg, iv and 3 mg/kg, po; assay type: ADME, organism-based; settings: in vivo, read-out: Vdss
[5] = Oral bioavailability in Sprague-Dawley rat at 3 mg/kg; assay type: ADME, organism-based; settings: in vivo
[6] = Drug uptake in Sprague-Dawley rat brain at 3 mg/kg, po after 2 hrs; assay type: ADME, organism-based; set-up: dose 3 mg/kg, route oral; settings: read-out: Drug uptake
[7] = AUClast in Sprague-Dawley rat at 2 mg/kg, iv and 3 mg/kg, po; assay type: ADME, organism-based; settings: plasma
[8] = tested on: Rattus norvegicus; experiment: Toxicity in rat assessed as reduction in core temperature at 0.3 mg/kg, ip; assay type: organism-based; set-up: dose 0.3 mg/kg, route intraperitoneal; settings: in vivo

CC(C)(NC(=O)c1nn(C(C)(C)C)c2c1C[C@H]1C[C@@H]21)c1ccccc1 gave a Cmax [1] of 33 ng/mL.

CC(C)(CO)NC(=O)c1nn(-c2ccc(F)cc2F)c2c1C[C@H]1C[C@@H]21 showed a Cmax [2] of 808 ng/mL, a Kp at 2 h [3] of 0.356 and a Vd [4] of 0.851 L/kg. For the same compound, the bioavailability [5] was 35.9%, the concentration at 2 h [6] was 623 ng/g and the AUC(0-t) [7] was 4480 ng·h/mL.

In the case of CCCCCCC(C)(C)c1ccc([C@@H]2C[C@H](O)CC[C@H]2CCCO)c(O)c1 [CP-55940], the T [8] is reported as > 2 °C.
